Data: patent publication US20110275703A1, “SUBSTITUTED SPIROKETAL DERIVATIVES AND USE THEREOF AS THERAPEUTIC DRUG FOR DIABETES” (CHUGAI SEIYAKU KABUSHIKI KAISHA, priority 2007, published 2011)

Tests used:
[1] = system: db/db mice; experiment: Study for glucose lowering effect in db/db mouse; type: in vivo; conditions: Mus musculus, po, 0.3 mg/kg administration, 6 hours, read-out: reduction of blood glucose 6 hours after administration
Experimental: Study for Glucose Lowering Effect in dB/dB Mouse
A study for glucose lowering effect was conducted using db/db mice (purchased from Clea Japan, Inc., male, 9 to 11 weeks old), type 2 diabetic model mice. On the day of the study, body weights and blood glucose levels were measured prior to the start of testing. Measurement of the blood glucose levels was performed using a simple blood glucose meter (manufactured by Bayer HealthCare, Dexter-Z II). The mice were allocated to some groups consisting of 5 mice each so that homogeneity of body weights or blood glucose levels among groups would be ensured. Blood collection was carried out by making an incision on the tip of the tail and taking the blood therefrom. On the day of the study, the test compounds were suspended in 0.5% carboxymethylcellulose solution (CMC solution), and the dosing solutions of which concentration was adjusted to either 0.3 mg/10 mL or 3 mg/10 mL were prepared. The dosing solutions were orally administered by gavage for mice in 10 mL/kg. To the control group, only a 0.5% CMC solution was orally administered in 10 mL/kg. Blood was collected prior to or sequentially after administration of test compounds by above method. The blood glucose levels were determined using a hexokinase method (AutoSera S GLU, manufactured by Daiichi Pure Chemicals Co., Ltd.). A percent reduction of blood glucose relative to control group at each time point after administration of test compounds was calculated by the following equation.
Percent reduction of blood glucose (%)={blood glucose level in the control group (mg/dL)-blood glucose level in the test compound group (mg/dL)}/blood glucose level in the control group (mg/dL)×100

[2] = target: T1, human SGLT2 (Homo sapiens, UniProt P31639); experiment: Inhibitory activity against methyl-α-D-glucopyranoside uptake, CHO cells stably expressing human SGLT2; type: cell-based; conditions: inhibition of SGLT2, Table 2-1; read-out: IC50 value
T1 construct: expressed in transfected cells; host or cells: CHO-K1
T1 sequence (P31639 1-672): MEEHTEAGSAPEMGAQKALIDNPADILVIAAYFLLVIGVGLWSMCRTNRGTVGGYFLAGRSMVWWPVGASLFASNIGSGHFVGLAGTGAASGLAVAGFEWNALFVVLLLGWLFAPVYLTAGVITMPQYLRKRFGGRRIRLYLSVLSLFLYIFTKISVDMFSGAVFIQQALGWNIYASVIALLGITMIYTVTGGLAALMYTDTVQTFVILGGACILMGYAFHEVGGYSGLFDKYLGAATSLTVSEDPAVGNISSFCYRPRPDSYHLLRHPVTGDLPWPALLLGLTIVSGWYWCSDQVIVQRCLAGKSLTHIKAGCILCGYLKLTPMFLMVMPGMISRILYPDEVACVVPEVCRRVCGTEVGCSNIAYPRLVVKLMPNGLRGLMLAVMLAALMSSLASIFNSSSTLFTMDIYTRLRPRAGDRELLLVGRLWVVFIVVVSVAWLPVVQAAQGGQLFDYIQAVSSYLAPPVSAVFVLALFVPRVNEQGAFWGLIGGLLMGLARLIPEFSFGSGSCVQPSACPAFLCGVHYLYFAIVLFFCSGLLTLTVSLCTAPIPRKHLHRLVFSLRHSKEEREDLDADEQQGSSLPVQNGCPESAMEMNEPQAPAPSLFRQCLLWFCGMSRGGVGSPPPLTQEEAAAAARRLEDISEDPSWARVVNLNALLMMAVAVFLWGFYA
Description: Evaluation of inhibitory activity against methyl-α-D-glucopyranoside uptake of human Na^+-glucose cotransporter (SGLT1 and SGLT2)
2) Construction of Human SGLT2 Expression Vector
Human SGLT2 cDNA was amplified by PCR with a cDNA library derived from human kidney (Clontech) as a template, synthetic DNA primers and KOD+ DNA Polymerase. The amplified cDNA was inserted into pcRII-Topo vector by using a Topo TA Cloning Dual Promoter kit. E. coli competent cells (TPO10) were transformed with the plasmid vector, cultured in LB medium containing ampicillin (50 mg/L) to grow ampicillin-resistant clones. The plasmid vector containing human SGLT2 cDNA was purified from the clone in a standard manner. Human SGLT2 cDNA added restriction enzyme recognition sites (Xho I at 5′-end, Hind III at 3′-end) was amplified by PCR with the plasmid vector as a template, synthetic DNA primers containing an additional restriction enzyme recognition site and KOD+ DNA Polymerase. This amplified cDNA was digested with Xho I and Hind III, and ligated into expression vector pcDNA3.1(−) digested with Xho I and Hind III by using a Rapid DNA Ligation kit. E. coli competent cells (DH5α) were transformed with the ligated expression vector and grown in ampicillin-containing LB medium. Human SGLT2 expression vector was purified from the ampicillin-resistant clone in a standard manner.
3) Establishment of Cell Lines Stably Expressing Human SGLT1 or Human SGLT2
The human SGLT1 expression vector or the human SGLT2 expression vector was digested with the restriction enzyme Pvu I and transfected into CHO-Kl cells with FuGENE (Roche Diagonostics). After the transfection, the cells were cultured at 37° C. in the presence of 5% CO2 for about 3 weeks in DMEM medium (Gibco) containing penicillin (50 U/mL, SIGMA), streptomycin (50 mg/L, SIGMA), geneticin (200 mg/L, Nacalai Tesque, Inc., Japan) and 20% fetal bovine serum to obtain geneticin-resistant clones. Among these clones, clones stably expressing human SGLT1 or human SGLT2 were selected by the evaluating the sodium-dependent uptake activity of sugar (methyl-α-D-glucopyranoside).
4) Evaluation of Inhibitory Activity Against methyl-α-D-glucopyranoside uptake
Cell lines stably expressing human SGLT1 or human SGLT2 CHO were seeded in 96-well culture plates at a density of 30000 to 40000 cells/well and cultured for 4 to 6 days. The medium in these plates was removed and replaced by 150 μL/well pretreatment buffer (i.e., a buffer containing 140 mM choline chloride, 2 mM potassium chloride, 1 mM calcium chloride, 1 mM magnesium chloride, 10 mM 2-[4-(2-hydroxyethyl)-1-piperazinyl]ethanesulfonic acid and tris(hydroxymethyl)aminomethane, pH 7.4), and the plates were incubated at 37° C. for 20 minutes. The pretreatment buffer in the plates was removed, replaced by 50 μL/well fresh pretreatment buffer, and the plates were incubated at 37° C. for 20 minutes. Methyl-α-D-(U—^14C)glucopyranoside (6.3 mL, Amersham Pharmacia Biotech, 200 mCi/L) was added to and mixed with 100 mL buffer (i.e., a buffer containing 140 mM sodium chloride, 2 mM potassium chloride, 1 mM calcium chloride, 1 mM magnesium chloride, 1 mM methyl-α-D-glucopyranoside, 10 mM [4-(2-hydroxyethyl)-1-piperazinyl]ethanesulfonic acid and tris(hydroxymethyl)aminomethane, pH 7.4), which was used as uptake buffer. Test compounds were dissolved into uptake buffer and these test compound solutions were used for evaluating inhibitory activity. Uptake buffer without a test compound was used as a control solution. Moreover, for use in measuring baseline uptake in the absence of sodium, sodium-free solution was prepared in the same manner to contain 140 mM choline chloride instead of sodium chloride. The pretreatment buffer was removed from each well of the plates and replaced by 35 μL/well test compound solutions, control solution or sodium-free solution, and the plates were incubated at 37° C. for 45 minutes. […]

SMILES: C#Cc1cc2c(cc1Cc1ccc(CC)cc1)[C@]1(OC2)O[C@H](CO)[C@@H](O)[C@H](O)[C@H]1O [Example 31, (1S,3′R,4′S,5′S,6′R)-6-[(4-ethylphenyl)methyl]-5-ethynyl-3′,4′,5′,6′-tetrahydro-6′-(hydroxymethyl)-spiro[isobenzofuran-1(3H),2′-[2H]pyran]-3′,4′,5′-triol]
- inhibition in vivo at 0.3 mg/kg [1]: ≥ 25%
- IC50 [2]: 2.1 nM
